Legend:
Human μ-opioid receptor = Human μ-opioid receptor (Homo sapiens, UniProt P35372); assay: biochemical; type: binding
[1] = molecular target: Human α2δ-1 subunit of Cav2.2 calcium channel (Homo sapiens, UniProt P54289); assay: biochemical; type: binding
Sequence of Human α2δ-1 subunit of Cav2.2 calcium channel (P54289 25-1103): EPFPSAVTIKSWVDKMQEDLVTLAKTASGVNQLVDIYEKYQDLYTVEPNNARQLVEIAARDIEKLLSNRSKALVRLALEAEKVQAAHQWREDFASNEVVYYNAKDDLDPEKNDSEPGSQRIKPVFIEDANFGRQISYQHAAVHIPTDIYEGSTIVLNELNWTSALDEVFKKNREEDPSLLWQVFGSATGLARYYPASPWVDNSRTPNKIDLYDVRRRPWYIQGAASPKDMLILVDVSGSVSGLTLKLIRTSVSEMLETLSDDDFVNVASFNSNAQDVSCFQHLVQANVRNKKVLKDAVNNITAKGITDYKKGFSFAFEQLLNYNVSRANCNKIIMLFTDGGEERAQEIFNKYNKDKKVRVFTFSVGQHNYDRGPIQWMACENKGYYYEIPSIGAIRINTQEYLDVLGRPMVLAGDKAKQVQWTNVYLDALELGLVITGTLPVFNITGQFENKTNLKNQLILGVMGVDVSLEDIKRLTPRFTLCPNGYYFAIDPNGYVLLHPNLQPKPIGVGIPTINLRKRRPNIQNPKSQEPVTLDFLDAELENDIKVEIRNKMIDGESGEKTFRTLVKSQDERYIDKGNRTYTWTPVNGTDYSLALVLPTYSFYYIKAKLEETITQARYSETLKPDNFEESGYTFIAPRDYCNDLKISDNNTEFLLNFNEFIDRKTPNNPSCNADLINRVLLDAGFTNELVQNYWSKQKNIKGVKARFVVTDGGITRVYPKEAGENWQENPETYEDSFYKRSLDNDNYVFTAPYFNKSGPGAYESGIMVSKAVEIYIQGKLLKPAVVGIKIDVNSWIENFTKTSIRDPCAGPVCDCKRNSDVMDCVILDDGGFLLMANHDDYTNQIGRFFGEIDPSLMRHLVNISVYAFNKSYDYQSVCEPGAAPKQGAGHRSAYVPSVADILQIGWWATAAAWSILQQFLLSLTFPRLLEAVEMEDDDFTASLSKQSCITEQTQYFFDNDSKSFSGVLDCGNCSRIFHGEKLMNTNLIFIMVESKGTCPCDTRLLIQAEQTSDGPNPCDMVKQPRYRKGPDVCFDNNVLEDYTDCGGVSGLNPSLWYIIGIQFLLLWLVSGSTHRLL

Sequence of Human μ-opioid receptor (P35372 whole entry): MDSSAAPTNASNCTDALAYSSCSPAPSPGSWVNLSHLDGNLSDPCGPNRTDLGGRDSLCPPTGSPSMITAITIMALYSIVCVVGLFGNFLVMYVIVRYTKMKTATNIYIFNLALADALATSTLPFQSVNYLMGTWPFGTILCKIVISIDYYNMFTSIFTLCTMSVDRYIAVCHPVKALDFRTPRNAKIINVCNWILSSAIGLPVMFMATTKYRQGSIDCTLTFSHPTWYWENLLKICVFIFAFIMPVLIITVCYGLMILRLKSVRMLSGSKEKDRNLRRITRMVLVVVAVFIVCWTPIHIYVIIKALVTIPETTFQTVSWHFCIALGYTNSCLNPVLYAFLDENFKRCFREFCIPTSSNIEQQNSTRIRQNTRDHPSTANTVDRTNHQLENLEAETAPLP

Row | SMILES | Ki (Human μ-opioid receptor) [nM] | Ki [1] [nM]
1 | CCC[C@@H](c1nc2ccc(Br)cc2c(=O)n1CC)N1C[C@H](C)N[C@@H](C)C1 [Example 227, 6-Bromo-2-((S)-1-((3S,5S)-3,5-dimethylpiperazin-1-yl)butyl)-3-ethylquinazolin-4(3H)-one] | > 500 | > 5000
2 | CCC[C@H](c1nc2ccc(Br)cc2c(=O)n1CC)N1C[C@H](C)N[C@@H](C)C1 [Example 228, 6-Bromo-2-((R)-1-((3S,5S)-3,5-dimethylpiperazin-1-yl)butyl)-3-ethylquinazolin-4(3H)-one] | < 100 | > 5000
3 | CCC[C@H](c1nc2ccc(Cl)cc2c(=O)n1CC)N1CCN[C@H](CF)C1 [Example 229, 6-Chloro-3-ethyl-2-((R)-1-((S)-3-(fluoromethyl)piperazin-1-yl)butyl)quinazolin-4(3H)-one] | > 500 | < 500
4 | CCC[C@H](c1nc2ccc(Cl)cc2c(=O)n1CC)N1CCN[C@@H](CF)C1 [Example 230, 6-chloro-3-ethyl-2-((R)-1-((R)-3-(fluoromethyl)piperazin-1-yl)butyl)quinazolin-4(3H)-one] | > 500 | 500 to 5000
5 | CCC[C@@H](c1nc2ccc(Cl)cc2c(=O)n1CC)N1CCN[C@@H](CF)C1 [Example 231, 6-chloro-3-ethyl-2-((S)-1-((R)-3-(fluoromethyl)piperazin-1-yl)butyl)quinazolin-4(3H)-one] | > 500 | > 5000
6 | CCC[C@@H](c1nc2ccc(Cl)cc2c(=O)n1CC)N1CCN[C@H](CF)C1 [Example 232, 6-chloro-3-ethyl-2-((S)-1-((S)-3-(fluoromethyl)piperazin-1-yl)butyl)quinazolin-4(3H)-one] | > 500 | > 5000
7 | CCC[C@H](c1nc2cnc(C(F)(F)F)cc2c(=O)n1CC)N1CCN[C@H](C)C1 [Example 233, 3-Ethyl-2-((R)-1-((R)-3-methylpiperazin-1-yl)butyl)-6-(trifluoromethyl)pyrido[3,4-d]pyrimidin-4(3H)-one] | > 500 | < 500
8 | CCC[C@H](c1nc2cnc(C(F)(F)F)cc2c(=O)n1CC)N1CCN[C@@H](C)C1 [Example 234, 3-ethyl-2-((R)-1-((S)-3-methylpiperazin-1-yl)butyl)-6-(trifluoromethyl)pyrido[3,4-d]pyrimidin-4(3H)-one] | > 500 | < 500
9 | CCC[C@@H](c1nc2cnc(C(F)(F)F)cc2c(=O)n1CC)N1CCN[C@@H](C)C1 [Example 235, 3-ethyl-2-((S)-1-((S)-3-methylpiperazin-1-yl)butyl)-6-(trifluoromethyl)pyrido[3,4-d]pyrimidin-4(3H)-one] | > 500 | > 5000
10 | CCC[C@H](c1nc2ccc(C(NC)c3ccccc3)cc2c(=O)n1CC)N1C[C@@H](C)N[C@@H](C)C1 (stereo partly drawn) [Example 236, 2-((R)-1-((3S,5R)-3,5-Dimethylpiperazin-1-yl)butyl)-3-ethyl-6-((methylamino)(phenyl)methyl)quinazolin-4(3H)-one] | > 500 | < 500
